Article PMC9361468 (RSC Advances, 2022)
Like-named read-outs stand apart in the source and are kept apart here.

Experiments:
[1] = physchem
[2] = Experimental pKa, common substituted piperazines, mean ± SD of 3 experiments
[3] = Experimental pKa, PROTAC precursors, mean ± SD of 3 experiments

SMILES	% protonation state at pH = 7.5, NI: not-ionized state (PROTAC precursors)	% protonation state at pH = 7.5, P: single protonation state (PROTAC precursors)	pKa [1]	also measured
CN1CCN(C)CC1 [1,4-Dimethylpiperazine, reference compound]	–	–	–	% protonation state at pH = 7.5, DP: double protonation state (substituted piperazines): DP: 0.02%; % protonation state at pH = 7.5, NI: not-ionized state (substituted piperazines): NI: 21.59%; % protonation state at pH = 7.5, P: single protonation state (substituted piperazines): P: 78.38%; pKa [1, 2]: ~8
CC(=O)N1CCN(C)CC1 [1-Acetyl-4-methylpiperazine, reference compound]	–	–	–	% protonation state at pH = 7.5, NI: not-ionized state (substituted piperazines): NI: 73.36%; % protonation state at pH = 7.5, P: single protonation state (substituted piperazines): P: 26.64%; % protonation state at pH = 7.5, NI: not-ionized state (substituted piperazines, listed as 1-acetyl-4-methylpiperazine): 73.4%; pKa [1, 2]: 7.06
CC(=O)N1CCNCC1 [1-Acetyl-piperazine, reference compound]	–	–	–	% protonation state at pH = 7.5, NI: not-ionized state (substituted piperazines): NI: 21.99%; % protonation state at pH = 7.5, P: single protonation state (substituted piperazines): P: 78.01%; pKa [1, 2]: 8.05 ± 0.02
CCN1CCNCC1 [1-Ethylpiperazine, reference compound]	–	–	–	% protonation state at pH = 7.5, DP: double protonation state (substituted piperazines): DP: 2.18%; % protonation state at pH = 7.5, NI: not-ionized state (substituted piperazines): NI: 0.34%; % protonation state at pH = 7.5, P: single protonation state (substituted piperazines): P: 97.48%; pKa [1, 2]: 5.04 ± 0.03
CN1CCNCC1 [1-Methylpiperazine, reference compound]	–	–	–	% protonation state at pH = 7.5, DP: double protonation state (substituted piperazines): DP: 2.13%; % protonation state at pH = 7.5, NI: not-ionized state (substituted piperazines): NI: 0.32%; % protonation state at pH = 7.5, P: single protonation state (substituted piperazines): P: 97.55%; pKa [1, 2]: 9.16
Cc1sc2c(c1C)C(c1ccc(Cl)cc1)=N[C@@H](CC(=O)N1CCN(C)CC1)c1nnc(C)n1-2 [Compound 2]	NI: 69.61%	P: 30.39%	7.14 ± 0.02	–
COc1ccc2c(c1)c(CC(=O)N1CCN(C)CC1)c(C)n2C(=O)c1ccc(Cl)cc1 [Compound 4]	NI: 78.79%	P: 21.20%	6.93 ± 0.03	–
C#CCN1CCN(C(=O)C[C@@H]2N=C(c3ccc(Cl)cc3)c3c(sc(C)c3C)-n3c(C)nnc32)CC1 [Compound 5]	NI: 99.74%	P: 0.26%	4.91 ± 0.14	–
O=C(c1cc(Cc2n[nH]c(=O)c3ccccc23)ccc1F)N1CCN(Cc2ccccc2)CC1 [Compound 7]	NI: 97.07%	P: 2.93%	–	pKa [1, 3]: 5.98 ± 0.01
CC(=O)CN1CCN(C(=O)c2ccc3c(c2)nc(Nc2cccc(Cl)c2)c2ccncc23)CC1 [Compound 8]	NI: 99.71%	P: 0.29%	–	–
COc1ccc2c(c1)c(CC(=O)N1CCN(CC(C)=O)CC1)c(C)n2C(=O)c1ccc(Cl)cc1 [Compound 9]	–	P: 3.83%	5.35 ± 0.04	–
CCOC(=O)CN1CCN(C(=O)Cc2c(C)n(C(=O)c3ccc(Cl)cc3)c3ccc(OC)cc23)CC1 [Compound 10]	NI: 99.9%	–	4.5 ± 0.06	–
COc1ccc2c(c1)c(CC(=O)N1CCN(CCC(C)=O)CC1)c(C)n2C(=O)c1ccc(Cl)cc1 [Compound 12]	NI: 97.07%	P: 2.93%	5.98 ± 0.05	–
COc1ccc2c(c1)c(CC(=O)N1CCN(CCCC(C)=O)CC1)c(C)n2C(=O)c1ccc(Cl)cc1 [Compound 13]	NI: 84.90%	P: 15.09%	6.75 ± 0.03	–
COC(=O)CCCCN1CCN(C(=O)Cc2c(C)n(C(=O)c3ccc(Cl)cc3)c3ccc(OC)cc23)CC1 [Compound 14]	NI: 72.91%	–	7.07 ± 0.05	–
COC(=O)CCCCCCN1CCN(C(=O)Cc2c(C)n(C(=O)c3ccc(Cl)cc3)c3ccc(OC)cc23)CC1 [Compound 15]	NI: 55.16%	–	7.41 ± 0.08	–
COC(=O)CCC(=O)N1CCN(CCNC(=O)Cc2c(C)n(C(=O)c3ccc(Cl)cc3)c3ccc(OC)cc23)CC1 [Compound 16]	NI: 98.73%	P: 1.27%	–	pKa [1, 3]: 5.61
COc1ccc2c(c1)c(CC(=O)N1CCN(CCOCCO)CC1)c(C)n2C(=O)c1ccc(Cl)cc1 [Compound 17]	NI: 84.90%	P: 15.10%	6.75 ± 0.14	–
COc1ccc2c(c1)c(CC(=O)N1CCN(CCC(=O)N[C@H](C(=O)N3C[C@H](O)C[C@H]3C(=O)N[C@@H](C)c3ccc(-c4scnc4C)cc3)C(C)(C)C)CC1)c(C)n2C(=O)c1ccc(Cl)cc1 [PROTAC-6]	–	–	–	% protonation state at pH = 7.5, NI: not-ionized state (PROTACs): NI: 98.33%
COc1ccc2c(c1)c(CC(=O)NCCCN1CCN(CCCNC(=O)CCC(=O)N[C@H](C(=O)N3C[C@H](O)C[C@H]3C(=O)N[C@@H](C)c3ccc(-c4scnc4C)cc3)C(C)(C)C)CC1)c(C)n2C(=O)c1ccc(Cl)cc1 [PROTAC-8]	–	–	–	% protonation state at pH = 7.5, DP: double protonation state (PROTACs): DP: 0.02%; % protonation state at pH = 7.5, NI: not-ionized state (PROTACs): NI: 32.86%; pKa ([1]; Experimental pKa, PROTACs, mean ± SD of 3 experiments): 3.94
COc1ccc2c(c1)c(CC(=O)N1CCN(CCOCCOCC(=O)N[C@H](C(=O)N3C[C@H](O)C[C@H]3C(=O)N[C@@H](C)c3ccc(-c4scnc4C)cc3)C(C)(C)C)CC1)c(C)n2C(=O)c1ccc(Cl)cc1 [PROTAC-10]	–	–	–	% protonation state at pH = 7.5, NI: not-ionized state (PROTACs): NI: 94.44%
C1CNCCN1 [Piperazine, reference compound]	–	–	–	% protonation state at pH = 7.5, DP: double protonation state: DP: 0.86%; % protonation state at pH = 7.5, NI: not-ionized state: NI: 0.67%; % protonation state at pH = 7.5, P: single protonation state: P: 98.48%
